# Laboratory results published in PubChem BioAssay AID330 (DTP/NCI, 2004).
# Values joined by “and” are separate entries in the source; they are usually repeats but may differ in a detail not shown here. Equal entries are not always repeated. Toxic doses and inconclusive results are not listed. Peptide text beside a SMILES is read from it. * marks the point of attachment. CH2Cl = ClC*
# Test system: P388 leukemia ip, CD2F1 mice, survival T/C
# Experiment: NCI In Vivo Anticancer Drug Screen. Data for tumor model P388 Leukemia (intraperitoneal) in CD2F1 (CDF1) mice
# Settings: endpoint: median survival time, higher = longer survival
# Summary of the method: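 Mice carrying the transplanted tumor received test compound or vehicle. Survival was recorded in each group, and the value is the treated-group measurement divided by that of the vehicle-treated control group.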
# [1] = dose: 50.0 mg/kg/injection, schedule: Q01DX009 (ip), vehicle: saline with Tween-80
# [2] = dose: 100.0 mg/kg/injection, schedule: Q01DX009 (ip), vehicle: saline with Tween-80
# [3] = dose: 200.0 mg/kg/injection, schedule: Q01DX009 (ip), vehicle: saline with Tween-80
# [4] = dose: 60.0 mg/kg/injection, schedule: Q01DX005 (ip), vehicle: Klucel (hydroxypropylcellulose) (HPC)
# [5] = dose: 120.0 mg/kg/injection, schedule: Q01DX005 (ip), vehicle: Klucel (hydroxypropylcellulose) (HPC)
# [6] = dose: 240.0 mg/kg/injection, schedule: Q01DX005 (ip), vehicle: Klucel (hydroxypropylcellulose) (HPC)
# [7] = dose: 50.0 mg/kg/injection, schedule: Q01DX005 (ip), vehicle: saline
# [8] = dose: 100.0 mg/kg/injection, schedule: Q01DX005 (ip), vehicle: saline
# [9] = dose: 200.0 mg/kg/injection, schedule: Q01DX005 (ip), vehicle: saline
# [10] = dose: 100.0 mg/kg/injection, schedule: Q04DX003 (ip), vehicle: saline with Tween-80
# [11] = dose: 25.0 mg/kg/injection, schedule: Q01DX009 (ip), vehicle: Klucel (hydroxypropylcellulose) (HPC)
# [12] = dose: 50.0 mg/kg/injection, schedule: Q01DX005 (ip), vehicle: Klucel (hydroxypropylcellulose) (HPC)
compound,measurement,setting,value
CCOC(=O)CC1NC(=O)CNC1=O (stereo not given),T/C,"dose: 60.0 mg/kg/injection, schedule: Q01DX005 (ip), vehicle: saline",100 % of control
same,T/C,"dose: 120.0 mg/kg/injection, schedule: Q01DX005 (ip), vehicle: saline",101 % of control
same,T/C,"dose: 240.0 mg/kg/injection, schedule: Q01DX005 (ip), vehicle: saline",100 % of control
CN(C)CCCNC(=O)NCCCCCCNC(=O)NCCCN(C)C,T/C,"dose: 50.0 mg/kg/injection, schedule: Q01DX005 (ip), vehicle: saline with Tween-80",93 % of control
same,T/C,"dose: 100.0 mg/kg/injection, schedule: Q01DX005 (ip), vehicle: saline with Tween-80",86 % of control
NC(N)=NCCCC(N=C1C=CC(=NC(CCCN=C(N)N)C(=O)O)C=C1)C(=O)O (stereo not given),T/C,"dose: 50.0 mg/kg/injection, schedule: Q04DX002 (ip), vehicle: distilled water + alcohol",99 % of control
same,T/C,"dose: 100.0 mg/kg/injection, schedule: Q04DX002 (ip), vehicle: distilled water + alcohol",101 % of control
same,T/C,"dose: 200.0 mg/kg/injection, schedule: Q04DX002 (ip), vehicle: distilled water + alcohol",104 % of control
same,T/C,"dose: 400.0 mg/kg/injection, schedule: Q04DX002 (ip), vehicle: distilled water + alcohol",107 % of control
same,T/C,"dose: 600.0 mg/kg/injection, schedule: Q04DX002 (ip), vehicle: distilled water + alcohol",108 % of control
COc1cccc2c1C(=O)c1c(O)c3c(c(O)c1C2=O)C[C@@](O)(C(=O)CO)C[C@@H]3OC1CC(NCc2ccccc2)C(O)C(C)O1 (stereo not given in full),T/C,"dose: 0.39 mg/kg/injection, schedule: Q01DX009 (ip), vehicle: water",150 % of control
same,T/C,"dose: 0.78 mg/kg/injection, schedule: Q01DX009 (ip), vehicle: water",151 % of control
same,T/C,"dose: 1.56 mg/kg/injection, schedule: Q01DX009 (ip), vehicle: water",153 % of control and 158 % of control
same,T/C,"dose: 3.13 mg/kg/injection, schedule: Q01DX009 (ip), vehicle: water",175 % of control and 194 % of control
same,T/C,"dose: 3.89 mg/kg/injection, schedule: Q04DX003 (ip), vehicle: water",163 % of control
same,T/C,"dose: 6.25 mg/kg/injection, schedule: Q01DX009 (ip), vehicle: water",107 % of control and 224 % of control
same,T/C,"dose: 6.48 mg/kg/injection, schedule: Q04DX003 (ip), vehicle: water",175 % of control
same,T/C,"dose: 10.8 mg/kg/injection, schedule: Q04DX003 (ip), vehicle: water",201 % of control
same,T/C,"dose: 18.0 mg/kg/injection, schedule: Q04DX003 (ip), vehicle: water",105 % of control
same,T/C,"dose: 30.0 mg/kg/injection, schedule: Q04DX003 (ip), vehicle: water",94 % of control
c1ccc(-n2ncc3ccc4cccn4c32)cc1,T/C,"dose: 60.0 mg/kg/injection, schedule: Q01DX005 (ip), vehicle: saline with Tween-80",108 % of control
same,T/C,"dose: 120.0 mg/kg/injection, schedule: Q01DX005 (ip), vehicle: saline with Tween-80",111 % of control
same,T/C,"dose: 240.0 mg/kg/injection, schedule: Q01DX005 (ip), vehicle: saline with Tween-80",120 % of control
c1ccc2[nH]c(N=Nc3cccc4ccccc34)cc2c1,T/C,"dose: 25.0 mg/kg/injection, schedule: Q01DX009 (ip), vehicle: other",93 % of control and 95 % of control
same,T/C,"dose: 50.0 mg/kg/injection, schedule: Q01DX009 (ip), vehicle: other",100 % of control
same,T/C,[1],99 % of control
same,T/C,"dose: 100.0 mg/kg/injection, schedule: Q01DX009 (ip), vehicle: other",100 % of control and 94 % of control
same,T/C,[2],108 % of control and 115 % of control
same,T/C,"dose: 200.0 mg/kg/injection, schedule: Q01DX009 (ip), vehicle: other",98 % of control and 100 % of control
same,T/C,[3],115 % of control
same,T/C,"dose: 400.0 mg/kg/injection, schedule: Q01DX009 (ip), vehicle: saline with Tween-80",98 % of control
CNC(=O)NC(c1cc(OC)c(O)c(OC)c1)c1cc2c(cc1O)OCO2 (stereo not given),T/C,[4],95 % of control
same,T/C,[5],94 % of control
same,T/C,[6],87 % of control
Cc1ccc(C2OC(N)=C(O)C2=O)cc1 (stereo not given),T/C,[4],107 % of control
same,T/C,[5],100 % of control
same,T/C,[6],93 % of control
CN1CCC(c2ccccc2)(c2ccccc2)C(=O)C1,T/C,[1],100 % of control and 104 % of control
same,T/C,[2],109 % of control and 111 % of control and 114 % of control
same,T/C,[3],118 % of control and 123 % of control
COc1c(OC(C)=O)c(OC(C)=O)cc2c1-c1ccc(SC)c(=O)cc1C(NC(C)=O)CC2 (stereo not given),T/C,"dose: 1.25 mg/kg/injection, schedule: Q01DX009 (ip), vehicle: Klucel (hydroxypropylcellulose) (HPC)",118 % of control
same,T/C,"dose: 5.0 mg/kg/injection, schedule: Q01DX009 (ip), vehicle: Klucel (hydroxypropylcellulose) (HPC)",150 % of control
same,T/C,"dose: 10.0 mg/kg/injection, schedule: Q01DX009 (ip), vehicle: Klucel (hydroxypropylcellulose) (HPC)",169 % of control and 185 % of control
same,T/C,"dose: 20.0 mg/kg/injection, schedule: Q01DX009 (ip), vehicle: Klucel (hydroxypropylcellulose) (HPC)",178 % of control
COC(=O)C1CC(C)N1C(C)C (stereo not given),T/C,[7],95 % of control
same,T/C,[8],97 % of control
same,T/C,[9],100 % of control
O=C1OC2(CCCCC2)N(c2ccccc2)C(=O)/C1=C/Nc1ccc(Cl)cc1,T/C,[1],98 % of control
same,T/C,[2],99 % of control
same,T/C,[3],92 % of control
CC(CCC(=O)O)C1CCC2C3CCC4CC(OC=O)CCC4(C)C3CC(OC=O)C12C (stereo not given),T/C,[1],95 % of control
same,T/C,"dose: 50.0 mg/kg/injection, schedule: Q04DX003 (ip), vehicle: saline with Tween-80",105 % of control
same,T/C,[2],90 % of control
same,T/C,[10],100 % of control
same,T/C,[3],90 % of control
same,T/C,"dose: 200.0 mg/kg/injection, schedule: Q04DX003 (ip), vehicle: saline with Tween-80",100 % of control
CCOC(=O)Nc1c(C)cc(C)cc1C,T/C,[11],99 % of control
same,T/C,"dose: 50.0 mg/kg/injection, schedule: Q01DX009 (ip), vehicle: Klucel (hydroxypropylcellulose) (HPC)",100 % of control
same,T/C,"dose: 100.0 mg/kg/injection, schedule: Q01DX009 (ip), vehicle: Klucel (hydroxypropylcellulose) (HPC)",94 % of control
same,T/C,"dose: 200.0 mg/kg/injection, schedule: Q01DX009 (ip), vehicle: Klucel (hydroxypropylcellulose) (HPC)",100 % of control
CC(C)NC1CCC(Nc2ccnc3cc(Cl)ccc23)CC1 (stereo not given),T/C,[12],98 % of control
same,T/C,"dose: 100.0 mg/kg/injection, schedule: Q01DX005 (ip), vehicle: Klucel (hydroxypropylcellulose) (HPC)",97 % of control
N#CC(C#N)=CN1CCCCCC1,T/C,"dose: 6.25 mg/kg/injection, schedule: Q04DX003 (ip), vehicle: saline with Tween-80",104 % of control
same,T/C,"dose: 12.5 mg/kg/injection, schedule: Q04DX003 (ip), vehicle: saline with Tween-80",100 % of control
CCOC(=O)/C(C#N)=C\c1ccc(/C=C(\C#N)C(=O)OCC)cc1,T/C,"dose: 25.0 mg/kg/injection, schedule: Q01DX009 (ip), vehicle: saline with Tween-80",90 % of control
same,T/C,[1],100 % of control
same,T/C,[2],90 % of control
same,T/C,[10],95 % of control
O=C1C2=C(Nc3cc([N+](=O)[O-])ccc3N2)OC1c1ccc2c(c1)OCO2 (stereo not given),T/C,"dose: 1.87 mg/kg/injection, schedule: Q01DX005 (ip), vehicle: Klucel (hydroxypropylcellulose) (HPC)",89 % of control
same,T/C,"dose: 3.75 mg/kg/injection, schedule: Q01DX005 (ip), vehicle: Klucel (hydroxypropylcellulose) (HPC)",90 % of control
same,T/C,"dose: 7.5 mg/kg/injection, schedule: Q01DX005 (ip), vehicle: Klucel (hydroxypropylcellulose) (HPC)",90 % of control
same,T/C,"dose: 15.0 mg/kg/injection, schedule: Q01DX005 (ip), vehicle: Klucel (hydroxypropylcellulose) (HPC)",88 % of control
same,T/C,"dose: 30.0 mg/kg/injection, schedule: Q01DX005 (ip), vehicle: Klucel (hydroxypropylcellulose) (HPC)",87 % of control
same,T/C,[5],89 % of control and 90 % of control
same,T/C,[6],93 % of control
CC(=O)NC(CC(C)C)C(=O)NC(Cc1ccccc1)C(=O)CCl (stereo not drawn) (Ac-Leu-Phe-CH2Cl; configuration not given here),T/C,"dose: 3.12 mg/kg/injection, schedule: Q01DX009 (ip), vehicle: Klucel (hydroxypropylcellulose) (HPC)",103 % of control
same,T/C,"dose: 6.25 mg/kg/injection, schedule: Q01DX009 (ip), vehicle: Klucel (hydroxypropylcellulose) (HPC)",113 % of control
same,T/C,"dose: 12.5 mg/kg/injection, schedule: Q01DX009 (ip), vehicle: Klucel (hydroxypropylcellulose) (HPC)",120 % of control
same,T/C,[11],116 % of control
CCN(CC)CCOC(=O)C(C(=O)OCCN(CC)CC)C1CCCC1,T/C,[7],94 % of control
same,T/C,[8],92 % of control
same,T/C,[9],100 % of control
C1=CCC(CC[Si]23OCCN(CCO2)CCO3)CC1 (stereo not given),T/C,"dose: 12.5 mg/kg/injection, schedule: Q01DX005 (ip), vehicle: Klucel (hydroxypropylcellulose) (HPC)",103 % of control
same,T/C,"dose: 25.0 mg/kg/injection, schedule: Q01DX005 (ip), vehicle: Klucel (hydroxypropylcellulose) (HPC)",96 % of control
same,T/C,[12],101 % of control and 96 % of control
